Measurements published in patent US11878975B2, “Substituted indole compounds useful as TLR inhibitors” (BRISTOL-MYERS SQUIBB COMPANY, priority 2017, dated 2024).

Assays:
Format in all cases: cell-based
[1] = biological target: T1, human TLR7 (Homo sapiens, UniProt Q9NYK1); test: TLR7 inhibition reporter assay (HEK-Blue cells, SEAP reporter, gardiquimod stimulation); conditions: HEK-Blue cells overexpressing human TLR7, SEAP reporter, gardiquimod 7.5 μM
T1 construct: host or cells: HEK-Blue cells
T1 sequence (Q9NYK1 27-1049): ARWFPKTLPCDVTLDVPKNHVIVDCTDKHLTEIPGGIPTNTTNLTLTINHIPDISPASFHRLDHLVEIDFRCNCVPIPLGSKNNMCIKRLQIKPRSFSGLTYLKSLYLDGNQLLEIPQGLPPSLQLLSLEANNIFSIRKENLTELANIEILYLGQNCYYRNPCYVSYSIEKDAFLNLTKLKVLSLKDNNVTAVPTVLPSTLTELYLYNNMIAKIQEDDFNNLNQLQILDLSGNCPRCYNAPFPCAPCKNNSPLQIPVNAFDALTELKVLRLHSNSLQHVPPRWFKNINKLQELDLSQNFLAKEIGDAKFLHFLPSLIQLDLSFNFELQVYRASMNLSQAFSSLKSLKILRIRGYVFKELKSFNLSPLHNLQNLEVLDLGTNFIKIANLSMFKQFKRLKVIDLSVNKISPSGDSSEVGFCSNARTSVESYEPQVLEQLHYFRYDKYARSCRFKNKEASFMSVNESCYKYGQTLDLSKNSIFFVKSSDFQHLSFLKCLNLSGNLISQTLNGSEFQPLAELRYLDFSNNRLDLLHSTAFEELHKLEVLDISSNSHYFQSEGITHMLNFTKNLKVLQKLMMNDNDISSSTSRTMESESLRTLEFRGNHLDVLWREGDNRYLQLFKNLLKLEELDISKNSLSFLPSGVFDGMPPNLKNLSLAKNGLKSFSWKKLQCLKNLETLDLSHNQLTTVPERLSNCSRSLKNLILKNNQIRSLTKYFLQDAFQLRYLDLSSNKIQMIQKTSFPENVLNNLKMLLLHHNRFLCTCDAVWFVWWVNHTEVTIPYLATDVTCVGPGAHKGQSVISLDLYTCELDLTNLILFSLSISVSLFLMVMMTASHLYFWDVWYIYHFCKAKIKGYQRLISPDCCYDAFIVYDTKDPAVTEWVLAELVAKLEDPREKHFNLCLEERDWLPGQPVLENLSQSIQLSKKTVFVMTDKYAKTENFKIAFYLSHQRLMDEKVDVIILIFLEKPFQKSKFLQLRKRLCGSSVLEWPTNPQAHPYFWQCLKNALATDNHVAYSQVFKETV
Procedure: (§1) TLR7/8/9 Inhibition Reporter Assays
(§2) HEK-Blue™-cells (Invivogen) overexpressing human TLR7, TLR8 or TLR9 receptors were used for screening inhibitors of these receptors using an inducible SEAP (secreted embryonic alkaline phosphatase) reporter gene under the control of the IFN-β minimal promoter fused to five NF-κB and AP-1-binding sites. Briefly, cells are seeded into Greiner 384 well plates (15000 cells per well for TLR7, 20,000 for TLR8 and 25,000 for TLR9) and then treated with test compounds in DMSO to yield a final dose response concentration range of 0.05 nM-50 μM. After a 30 minute compound pre-treatment al room temperature, the cells are then stimulated with a TLR7 ligand (gardiquimod at a final concentration of 7.5 μM), TLR8 ligand (R848 at a final concentration of 15.9 μM) or TLR9 ligand (ODN2006 at a final concentration of 5 nM) to activate NF-κB and AP-1 which induce the production of SEAP. After a 22 hour incubation at 37° C., 5% CO2, SEAP levels are determined with the addition of HEK-Blue™ Detection reagent (Invivogen), a cell culture medium that allows for detection of SEAP, according to manufacturer's specifications. The percent inhibition is determined as the % reduction in the HEK-Blue signal present in wells treated with agonist plus DMSO alone compared to wells treated with a known inhibitor.

[2] = biological target: T2, human TLR9 (Homo sapiens, UniProt Q9NR96); test: TLR9 inhibition reporter assay (HEK-Blue cells, SEAP reporter, ODN2006 stimulation); conditions: HEK-Blue cells overexpressing human TLR9, SEAP reporter, ODN2006 5 nM
T2 construct: host or cells: HEK-Blue cells
T2 sequence (Q9NR96 26-1032): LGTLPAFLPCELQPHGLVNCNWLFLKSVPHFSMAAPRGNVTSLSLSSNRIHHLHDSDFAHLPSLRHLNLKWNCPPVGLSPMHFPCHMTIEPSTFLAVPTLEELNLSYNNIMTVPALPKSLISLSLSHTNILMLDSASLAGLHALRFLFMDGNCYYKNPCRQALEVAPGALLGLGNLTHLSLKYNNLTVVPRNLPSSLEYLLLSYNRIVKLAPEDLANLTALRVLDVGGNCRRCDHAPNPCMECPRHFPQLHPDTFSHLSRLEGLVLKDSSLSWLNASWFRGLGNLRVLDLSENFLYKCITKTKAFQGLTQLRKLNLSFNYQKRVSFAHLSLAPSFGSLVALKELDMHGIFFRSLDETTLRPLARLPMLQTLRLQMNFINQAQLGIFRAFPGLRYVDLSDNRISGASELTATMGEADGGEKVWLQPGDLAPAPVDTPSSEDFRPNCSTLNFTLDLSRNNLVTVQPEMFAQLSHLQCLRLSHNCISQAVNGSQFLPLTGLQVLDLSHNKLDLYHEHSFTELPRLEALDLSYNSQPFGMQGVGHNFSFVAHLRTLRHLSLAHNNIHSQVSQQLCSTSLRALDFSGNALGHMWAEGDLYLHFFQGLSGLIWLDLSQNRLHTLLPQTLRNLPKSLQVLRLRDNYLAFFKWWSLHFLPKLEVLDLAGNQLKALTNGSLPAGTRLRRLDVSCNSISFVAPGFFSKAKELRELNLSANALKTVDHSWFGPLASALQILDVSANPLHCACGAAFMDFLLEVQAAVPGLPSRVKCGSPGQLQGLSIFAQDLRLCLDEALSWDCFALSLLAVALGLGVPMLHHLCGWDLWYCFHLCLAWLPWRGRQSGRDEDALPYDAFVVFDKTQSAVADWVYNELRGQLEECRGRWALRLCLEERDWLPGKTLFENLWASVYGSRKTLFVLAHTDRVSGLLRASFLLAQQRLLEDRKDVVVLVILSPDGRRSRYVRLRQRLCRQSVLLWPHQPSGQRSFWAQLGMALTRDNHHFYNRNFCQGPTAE
Procedure: as §1, §2

[3] = biological target: T3, human TLR8 (Homo sapiens, UniProt Q9NR97); test: TLR8 inhibition reporter assay (HEK-Blue cells, SEAP reporter, R848 stimulation); conditions: HEK-Blue cells overexpressing human TLR8, SEAP reporter, R848 15.9 μM
T3 construct: host or cells: HEK-Blue cells
T3 sequence (Q9NR97 27-1041): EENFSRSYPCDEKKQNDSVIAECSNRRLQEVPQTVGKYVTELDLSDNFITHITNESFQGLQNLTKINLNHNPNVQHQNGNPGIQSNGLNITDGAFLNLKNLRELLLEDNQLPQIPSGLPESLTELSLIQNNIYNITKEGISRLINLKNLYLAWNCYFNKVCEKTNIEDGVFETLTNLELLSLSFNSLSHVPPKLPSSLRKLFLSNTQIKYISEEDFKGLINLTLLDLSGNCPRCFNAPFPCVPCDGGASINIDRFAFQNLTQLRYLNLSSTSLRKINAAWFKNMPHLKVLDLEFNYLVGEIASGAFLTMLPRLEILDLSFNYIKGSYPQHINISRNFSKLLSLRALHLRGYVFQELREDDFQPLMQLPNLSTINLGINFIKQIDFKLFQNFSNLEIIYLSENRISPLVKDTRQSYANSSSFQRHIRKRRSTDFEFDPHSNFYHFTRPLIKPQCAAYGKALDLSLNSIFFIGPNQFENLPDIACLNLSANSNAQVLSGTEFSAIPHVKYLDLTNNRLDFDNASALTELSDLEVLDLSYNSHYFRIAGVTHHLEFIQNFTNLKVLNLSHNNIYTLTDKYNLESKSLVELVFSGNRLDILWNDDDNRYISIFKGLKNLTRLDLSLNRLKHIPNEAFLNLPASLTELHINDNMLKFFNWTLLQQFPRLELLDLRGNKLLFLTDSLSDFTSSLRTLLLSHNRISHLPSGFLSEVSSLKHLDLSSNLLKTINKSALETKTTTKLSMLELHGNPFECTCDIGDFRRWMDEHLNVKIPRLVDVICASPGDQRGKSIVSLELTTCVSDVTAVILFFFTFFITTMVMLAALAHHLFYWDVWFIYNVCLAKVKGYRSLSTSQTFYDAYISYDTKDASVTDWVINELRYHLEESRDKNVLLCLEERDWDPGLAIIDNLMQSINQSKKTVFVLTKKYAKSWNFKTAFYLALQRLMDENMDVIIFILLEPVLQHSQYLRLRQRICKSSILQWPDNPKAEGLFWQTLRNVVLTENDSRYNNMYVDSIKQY
Procedure: as §1, §2

Compound	IC50 [1]	IC50 [2]	IC50 [3]
CCN(C)C1CCC(c2ccc3[nH]c(-c4cc(OC)c5ncnn5c4)c(C(C)C)c3c2)CC1 (single isomer, unassigned) [Example 66]	0.85 nM	1170 nM	4.4 nM
COc1cc(-c2[nH]c3ccc(C4CCC(NCC(F)F)CC4)cc3c2C(C)C)cn2ncnc12 (single isomer, unassigned) [Example 67]	0.17 nM	5760 nM	1.3 nM
COc1cc(-c2[nH]c3ccc(C4CCC(NCC(F)F)CC4)cc3c2C(C)C)cn2ncnc12 (single isomer, unassigned) [Example 68]	0.85 nM	11600 nM	6.8 nM
COCCN(C)C1CCC(c2ccc3[nH]c(-c4cc(OC)c5ncnn5c4)c(C(C)C)c3c2)CC1 (single isomer, unassigned) [Example 72]	0.3 nM	1280 nM	1.2 nM
COCCN(C)C1CCC(c2ccc3[nH]c(-c4cc(OC)c5ncnn5c4)c(C(C)C)c3c2)CC1 (single isomer, unassigned) [Example 79]	2 nM	2580 nM	5.7 nM
Cc1c(-c2[nH]c3ccc(C4CCC(NC5COC5)CC4)cc3c2C(C)C)cn2ncnc2c1C (single isomer, unassigned) [Example 85]	0.35 nM	2880 nM	0.53 nM
Cc1c(-c2[nH]c3ccc(C4CCC(NC5COC5)CC4)cc3c2C(C)C)cn2ncnc2c1C (single isomer, unassigned) [Example 86]	2 nM	5220 nM	2.6 nM
Cc1c(-c2[nH]c3ccc(C4CCC(N5CCOCC5)CC4)cc3c2C(C)C)cn2ncnc2c1C (single isomer, unassigned) [Example 92]	0.39 nM	2680 nM	0.33 nM

The remaining lines, values ahead:

IC50 [1]	IC50 [2]	IC50 [3]	Compound
3 nM	3800 nM	3.8 nM	Cc1c(-c2[nH]c3ccc(C4CCC(N5CCOCC5)CC4)cc3c2C(C)C)cn2ncnc2c1C (single isomer, unassigned) [Example 93]
7 nM	19800 nM	38 nM	COc1cc(-c2[nH]c3ccc(C4CCC(NCC(F)(F)F)CC4)cc3c2C(C)C)cn2ncnc12 (single isomer, unassigned) [Example 108]
24 nM	37000 nM	396 nM	COc1cc(-c2[nH]c3ccc(C4CCC(NCC(F)(F)F)CC4)cc3c2C(C)C)cn2ncnc12 (single isomer, unassigned) [Example 110]
4 nM	515 nM	20 nM	Cc1cc(-c2[nH]c3ccc(C4CCC(N(C)C)CC4)cc3c2C(C)C)cc(C)n1 (single isomer, unassigned) [Example 114]
1 nM	16100 nM	13 nM	COc1cc(-c2[nH]c3ccc(C4CCC(NC(C)=O)CC4)cc3c2C(C)C)cn2ncnc12 (single isomer, unassigned) [Example 115, N-(4-(3-isopropyl-2-(8-methoxy-[1,2,4]triazolo[1,5-a]pyridin-6-yl)-1H-indol-5-yl)cyclohexyl)acetamide]
9 nM	> 50000 nM	61 nM	COc1cc(-c2[nH]c3ccc(C4CCC(NC(C)=O)CC4)cc3c2C(C)C)cn2ncnc12 (single isomer, unassigned) [Example 116, N-(4-(3-isopropyl-2-(8-methoxy-[1,2,4]triazolo[1,5-a]pyridin-6-yl)-1H-indol-5-yl)cyclohexyl)acetamide]
0.3 nM	544 nM	3.9 nM	CNCC(=O)NC1CCC(c2ccc3[nH]c(-c4cc(C)nc(C)c4)c(C(C)C)c3c2)CC1 (single isomer, unassigned) [Example 129]
5 nM	236 nM	33 nM	CNCC(=O)NC1CCC(c2ccc3[nH]c(-c4cc(C)nc(C)c4)c(C(C)C)c3c2)CC1 (single isomer, unassigned) [Example 130]
0.22 nM	569 nM	0.73 nM	CNC1CCC(c2ccc3[nH]c(-c4cc(OC)c5ncnn5c4)c(C(C)C)c3c2)CC1 (single isomer, unassigned) [Example 145, 4-(3-isopropyl-2-(8-methoxy-[1,2,4]triazolo[1,5-a]pyridin-6-yl)-1H-indol-5-yl)-N-methylcyclohexanamine]
